# Reference: patent publication US20080039461A1, “Treatment of pain by inhibition of p38 map kinase” (priority 2002, published 2008)
# Like-named read-outs stand apart in the source and are kept apart here.
# What was measured:
# p38 MAPK = biological target: T1, p38 MAPK (Homo sapiens, UniProt Q16539); experiment: p38 MAPK phosphorylation assay (similar to Kumar); assay type: biochemical
# T1 construct: expressed in transfected cells; host or cells: HeLa (kinase immunoprecipitated from lysates of transfected, stimulated cells)
# T1 sequence (Q16539 whole entry): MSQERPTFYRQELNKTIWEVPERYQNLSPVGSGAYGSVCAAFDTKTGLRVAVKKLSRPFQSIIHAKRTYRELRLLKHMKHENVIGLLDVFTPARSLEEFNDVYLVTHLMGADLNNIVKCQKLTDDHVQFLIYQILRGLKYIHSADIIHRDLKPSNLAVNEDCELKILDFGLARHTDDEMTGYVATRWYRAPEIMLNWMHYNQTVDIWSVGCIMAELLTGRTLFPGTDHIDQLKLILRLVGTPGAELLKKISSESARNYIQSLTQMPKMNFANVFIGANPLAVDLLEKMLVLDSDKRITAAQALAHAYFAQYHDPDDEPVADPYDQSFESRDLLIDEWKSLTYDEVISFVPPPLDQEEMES
# Protocol: Alternative assays involving in vitro analysis of potential inhibitors include those where cells (HeLa) transfected with DNA coding for relevant kinases can be activated with substances such as sorbitol, IL-1, TNF, or PMA (phorbol myristate acetate). After immunoprecipitation of cell lysates, equal aliquots of immune complexes of the kinases are pre-incubated for an adequate time with a specific concentration of the potential inhibitor followed by addition of kinase substrate buffer mix containing labeled ATP and GST-ATF2 or MBP. After incubation, kinase reactions are ceased by the addition of SDS loading buffer. Phosphorylated substrate is resolved through SDS-PAGE and visualized and quantitated in a phosphorimager. Both p38 regulation, in terms of phosphorylation, and IC50 values can be determined by quantitation. […] Res. Commun. […]
# mechanical hyperalgesia = experiment: mechanical hyperalgesia, Randall Selitto test, intraplantar carrageenan; assay type: in vivo, Sprague Dawley Rats
# Protocol: The effects of p38 MAP kinase inhibitors on Mechanical and Thermal Hyperalgesia were evaluated as follows. Sprague Dawley Rats were evaluated in carageenan induced models whereby an intraplantar injection of carageenan was made into the left paw. At approximately 2 and 4 hour post carageenan, the left hind limb of each rat was assessed for the development of thermal hyperalgesia relative to a p38 MAP kinase inhibitor (SC), vehicle, indomethacin, and the vehicle for indomethacin. Indomethacin, a known nonsteroidal analgesic, was used as a control reference in this study. Assessment of mechanical and thermal hyperalgesia was accomplished through the use of a Randall Selitto Analgesiometer and the Hargreaves Plantar Device, respectively. Approximately 10 minutes after intraperitoneal dosing, or 30 minutes following oral indomethacin treatment, each animal was lightly anaesthetized (isoflurane in oxygen) and an intraplantar injection of carageenan was made into the left paw. Animals were allowed to recover from anesthesia. Mechanical hyperalgesia was tested using the Randall-Selittlo test. Randall, L. & Selitto, J., Arch Int Pharmacodyn (1957) 110:409-419. The carageenan model was established as set forth above. […] In the same animals treated with SC, the paw withdrawal threshold increased from a pre dose threshold of 159±8 g to 177±17 g, 2 hours post-carrageenan. […] As set forth in Example 2 above, Sprague Dawley rats were evaluated in the intraplantar carageenan model. The animals were administered the p38 MAP kinase inhibitor SA, vehicle, indomethacin, and the vehicle for indomethacin. After dosing, the animals were assessed for the development of mechanical hyperalgesia and thermal hyperalgesia using the Randall Selitto Analgesiometer and the Hargreaves Plantar Device, respectively.
# thermal hyperalgesia = experiment: thermal hyperalgesia, Plantar test (Hargreaves), intraplantar carrageenan; assay type: in vivo, Sprague Dawley Rats
# Protocol: The effects of p38 MAP kinase inhibitors on Mechanical and Thermal Hyperalgesia were evaluated as follows. Sprague Dawley Rats were evaluated in carageenan induced models whereby an intraplantar injection of carageenan was made into the left paw. At approximately 2 and 4 hour post carageenan, the left hind limb of each rat was assessed for the development of thermal hyperalgesia relative to a p38 MAP kinase inhibitor (SC), vehicle, indomethacin, and the vehicle for indomethacin. Indomethacin, a known nonsteroidal analgesic, was used as a control reference in this study. Assessment of mechanical and thermal hyperalgesia was accomplished through the use of a Randall Selitto Analgesiometer and the Hargreaves Plantar Device, respectively. Approximately 10 minutes after intraperitoneal dosing, or 30 minutes following oral indomethacin treatment, each animal was lightly anaesthetized (isoflurane in oxygen) and an intraplantar injection of carageenan was made into the left paw. Animals were allowed to recover from anesthesia. As set forth above in the carageenan model, the effect of SC was evaluated with respect to attenuation of the development of thermal hyperalgesia at either of the 2 and 4 hours post-carrageenan time points tested. As above with respect to mechanical hyperalgesia, observation of statistically significant thermal hyperalgesia development was made at both the 2 and 4 hour periods (8.2±1.5 s; P≦0.05 and 7.0±1.5 s; P≦0.01, respectively), compared to vehicle pre dose measurements (12.7±1.0 s). […] As set forth in Example 2 above, Sprague Dawley rats were evaluated in the intraplantar carageenan model. The animals were administered the p38 MAP kinase inhibitor SA, vehicle, indomethacin, and the vehicle for indomethacin. After dosing, the animals were assessed for the development of mechanical hyperalgesia and thermal hyperalgesia using the Randall Selitto Analgesiometer and the Hargreaves Plantar Device, respectively.
# [1] = test system: recovery from the procedure; experiment: adjunct to opioid anesthesia for Cesarean section; assay type: in vivo; conditions: in opioid solution, subarachnoid; SL 60 mg/kg, SJ 630 mg/kg, SK 50 mg/kg
# Protocol: A person scheduled for a Cesarean section is prepared according to standard guidelines. A subarachnoid block is performed in the sitting position, following the administration of 1-2 liters of crystalloid solution. Skin infiltration with local anaesthetic is performed at the L2-3 or L3-L4 interspace. A spinal needle introducer is used to facilitate insertion of the needle into the patient. The needle is introduced into the epidural space and perforates the dura. The emergence of cerebrospinal fluid indicates proper placement of the needle. An opiod solution containing approximately 60 mg/kg of SL is administered and injected slowly of a ten to fifteen second time interval. […] The needle is then removed and resulting wound is dressed. The Cesarean section proceeds according to a standard protocol.
# A person scheduled for a Cesarean section is prepared according to standard guidelines. A subarachnoid block is performed in the sitting position, following the administration of 1-2 liters of crystalloid solution. Skin infiltration with local anaesthetic is performed at the L2-3 or L3-L4 interspace. A spinal needle introducer is used to facilitate insertion of the needle into the patient. The needle is introduced into the epidural space and perforates the dura. The emergence of cerebrospinal fluid indicates proper placement of the needle. An opiod solution containing approximately 630 mg/kg of SJ is administered and injected slowly of a ten to fifteen second time interval. […] The needle is then removed and resulting wound is dressed. The Cesarean section proceeds according to a standard protocol.
# A person scheduled for a Cesarean section is prepared according to standard guidelines. A subarachnoid block is performed in the sitting position, following the administration of 1-2 liters of crystalloid solution. Skin infiltration with local anaesthetic is performed at the L2-3 or L3-L4 interspace. A spinal needle introducer is used to facilitate insertion of the needle into the patient. The needle is introduced into the epidural space and perforates the dura. […]
# [2] = test system: post-activity related discomfort; experiment: pain associated with athletic endeavor; assay type: in vivo; conditions: before a long distance race; SH 50 mg/kg, SI 20 mg/kg, SM 40 mg/kg
# Protocol: A subject preparing for an athletic endeavor, the running of a long distance race, is administered approximately 50 mg/kg of SH approximately 30 minutes before the endeavor is to begin. No other analgesics or anesthetics are administered. The athlete participates in and completes the endeavor.
# A subject preparing for an athletic endeavor, the running of a long distance race, is administered approximately 20 mg/kg of SI approximately 1 hours before the endeavor is to begin. No other analgesics or anesthetics are administered. The athlete participates in and completes the endeavor.
# A subject preparing for an athletic endeavor, the running of a long distance race, is administered approximately 40 mg/kg of SM approximately 1 hours before the endeavor is to begin. No other analgesics or anesthetics are administered. The athlete participates in and completes the endeavor.
# [3] = test system: carrageenan-induced thermal hyperalgesia; experiment: carrageenan-induced thermal hyperalgesia (Hargreaves-type device); assay type: in vivo, rat; conditions: intravenous administration, pre injury
# Protocol: Hyperalgesia was induced in the rat's right hindpaw by intraplantar injection of carrageenan (2 mg in 0.1 ml of a […] solution (weight/volume) in physiological saline). To assess the thermally evoked paw withdrawal time, a device modeled after that described by Hargreaves (1988) was used. See Hargreaves K, Dubner R, Brown F, Flores C, Joris J. A new and sensitive method for measuring thermal nociception in cutaneous hyperalgesia, Pain, 32, 77-88 (1988). The device consisted of a glass surface on top of which the rats were placed. The glass surface was heated by a focused projection bulb below the glass surface. The first sign of discomfort is usually expressed as an attempt to sit up and lick the forepaws by the experimental animal. This response indicates a threshold of pain under the predetermined conditions. Dancing and jumping about by an undrugged animal is an indicator of unbearable pain; whereas drugged animals more commonly withdraw the hind paws and keep them close to their abdomen. A timer was actuated with the light source and latency defined as the time required for the paw to be withdrawn from the glass surface. See Dirig D M, Isakson P C, and Yaksh T L. J Pharmacol Exp Ther., 285, 1031-8 (1998).
# [4] = test system: discomfort of a dental procedure; experiment: pain associated with a dental procedure; assay type: in vivo; conditions: approximately 1 hours before the procedure; SF 40 mg/kg, SG 20 mg/kg
# Protocol: A subject scheduled for a dental procedure, the filling of a cavity in a tooth, is administered approximately 40 mg/kg of the p38 MAP kinase inhibitor SF approximately 1 hours before the procedure is to begin. No other analgesics or anesthetics are administered.
# A subject scheduled for a dental procedure, the filling of a cavity in a tooth, is administered approximately 20 mg/kg of the p38 MAP kinase inhibitor SG approximately 1 hours before the procedure is to begin. No other analgesics or anesthetics are administered.
# [5] = test system: NMDA-induced hyperalgesia; experiment: hyperalgesia induced by intrathecal NMDA; assay type: in vivo, rat; conditions: IT NMDA 0.3 μg; MK801 10 μg, IT SD 3-60 μg, IT SB 1-30 μg, SA 10 μg
# Text: Male Sprague-Dawley rats (300-350 g) were implanted under isoflurane anesthesia with lumbar polyethylene (PE-10) catheters according to a modified method originally described in Physiol. Behav. 17, 1031 (1976). […] IT saline and 5% DMSO alone had no effect on behavior or protein expression/phosphorylation.
# [6] = assay similar to the phosphorylation assay (Kumar), read-out: p38 MAPK activity, relative IC50 value
smiles,measurement,setting,value
COc1cc2c(cc1C(=O)N1CC(C)C(Cc3ccc(F)cc3)CC1C)c(C(=O)C(=O)N(C)C)cn2C (stereo not drawn) [SA],IC50,p38 MAPK; [6],< 5 nM
same,paw withdrawal threshold,"mechanical hyperalgesia; Example 3, oral, 30 minutes prior to carrageenan, 4 hours",159 ± 19 g
same,attenuation of thermal hyperalgesia,"thermal hyperalgesia; Example 3, oral, lower dose levels",no significant attenuation
same,withdrawal latency,"thermal hyperalgesia; Example 3, oral, 4 hours",11.1 ± 1.4 s
COc1cc2[nH]cc(C(=O)C(=O)N3CCOCC3)c2cc1C(=O)N1CCC(Cc2ccc(F)cc2)CC1 [SK],IC50,p38 MAPK; [6],< 5 nM
same,recovery after Cesarean section,[1],recovers more rapidly from the procedure
Cn1cc(C(=O)C(=O)N2CCCC2)c2cc(C(=O)N3CCC(Cc4ccc(F)cc4)CC3)c(Cl)cc21 [SH],IC50,p38 MAPK; [6],< 5 nM
same,post-activity related discomfort,[2],reduced level of post-activity related discomfort
COc1cc2c(cc1C(=O)N1CCC(=Cc3ccc(F)cc3)CC1)c(C(=O)C(=O)N(C)C)cn2C [SM],IC50,p38 MAPK; [6],< 5 nM
same,post-activity related discomfort,[2],reduced level of post-activity related discomfort
COc1cc2[nH]cc(C(=O)C(=O)N(C)C)c2cc1C(=O)N1CC(C)N(Cc2ccc(F)cc2)CC1C (stereo not drawn) [SE],IC50,p38 MAPK; [6],< 5 nM
same,carageenan induced hyperalgesia,[3],Attenuation of the carageenan induced hyperalgesia
C[C@@H]1CN(Cc2ccc(F)cc2)[C@@H](C)CN1C(=O)c1cc2c(C(=O)C(=O)N3CCOCC3)cn(C)c2cc1Cl [SJ],IC50,p38 MAPK; [6],< 5 nM
same,recovery after Cesarean section,[1],recovers more rapidly from the procedure
"COc1ccc2c(c1)c(CC(=O)O)c(C)n2C(=O)c1ccc(Cl)cc1 [indomethacin, reference compound]",paw withdrawal threshold,"mechanical hyperalgesia; Example 2, oral 10 mg/kg, 2 hours",180 ± 21 g
same,paw withdrawal threshold,"mechanical hyperalgesia; Example 2, oral 10 mg/kg, 4 hours",188 ± 17 g
same,paw withdrawal threshold,"mechanical hyperalgesia; Example 3, oral 10 mg/kg, 4 hours",177 ± 16 g
same,increase of withdrawal latency,"thermal hyperalgesia; Example 2, 10 mg/kg p.o., 2 hours post-carrageenan",not significant
same,withdrawal latency,"thermal hyperalgesia; Example 2, 10 mg/kg p.o., 4 hours",12.5 ± 1.4 s
same,withdrawal latency,"thermal hyperalgesia; Example 3, 10 mg/kg p.o., 2 hours",13.1 ± 0.9 s
same,withdrawal latency,"thermal hyperalgesia; Example 3, 10 mg/kg p.o., 4 hours",9.3 ± 1.3 s
COCn1cc(C(=O)C(=O)N(C)C)c2cc(C(=O)N3C[C@H](C)N(Cc4ccc(F)cc4)C[C@H]3C)c(OC)cc21 [SI],IC50,p38 MAPK,< 5 nM
same,post-activity related discomfort,[2],reduced level of post-activity related discomfort
C[C@@H]1CN(Cc2ccc(F)cc2)[C@@H](C)CN1C(=O)c1cc2c(C(=O)C(=O)N(C)C)cn(C)c2cc1Cl [SC],paw withdrawal threshold,"mechanical hyperalgesia; Example 2, SC intraperitoneal, 2 hours post-carrageenan",177 ± 17 g
same,paw withdrawal threshold,"mechanical hyperalgesia; Example 2, SC intraperitoneal, 4 hour post-carrageenan",153 ± 14 g
same,withdrawal latency,"thermal hyperalgesia; Example 2, first of two dose levels (not given), 2 hours",11.5 ± 1.1 s
same,withdrawal latency,"thermal hyperalgesia; Example 2, first of two dose levels (not given), 4 hours",10.2 ± 1.5 s
same,withdrawal latency,"thermal hyperalgesia; Example 2, second of two dose levels (not given), 2 hours",11.6 ± 1.1 s
same,withdrawal latency,"thermal hyperalgesia; Example 2, second of two dose levels (not given), 4 hours",10.2 ± 0.9 s
Cc1[nH]c2cc(Cl)c(C(=O)N3CCC(Cc4ccc(F)cc4)CC3)cc2c1C(=O)C(=O)N1CCN(C)CC1 [SL],IC50,p38 MAPK; [6],< 5 nM
same,recovery after Cesarean section,[1],recovers more rapidly from the procedure
COc1cc2c(cc1C(=O)N1CCC(Cc3ccc(F)cc3)CC1)c(C(=O)C(=O)O)cn2C [SF],IC50,p38 MAPK; [6],< 5 nM
same,discomfort during dental procedure,[4],reduced level of discomfort
C[C@]12N[C@H](Cc3ccccc31)c1ccccc12 [MK801],hyperalgesia induced by IT NMDA,[5],reversed
COc1cc2c(cc1C(=O)N1CCC(Cc3ccc(F)cc3)CC1)c(C(=O)C(=O)N1CCN(C)CC1)cn2C [SG],IC50,p38 MAPK; [6],< 5 nM
same,discomfort during dental procedure,[4],reduced level of discomfort
